Patent publication US8258125B2, “HDL-boosting combination therapy complexes” (priority 2008, dated 2012)
Entries after “also recorded” stand apart in the source; their conditions may differ. Like-named read-outs stand apart in the source and are kept apart here.

What was measured:
[1] = test system: Rattus norvegicus, outbred Sprague Dawley; conditions: combination, rat 14 days, mg/70 kg man
Procedure: Age range at initiation of study was 8-14. […] Quarantine/acclimation was one week. Animals were randomized to groups based on weight. Number per cage was 2-3. Environmental conditions: Conventional microisolator caging. Room temperature was maintained between 19 and 23° C. Relative humidify was maintained at 55-80%. The light/dark cycle was maintained on a 12 hour cycle. Animals were exposed to the test substance daily for 14 days (2 weeks); and the doses were administered by gavage.
Gross necropsy was performed in the animals in the study. […] Collected tissues were placed in formalin overnight and then sectioned and cassetted the following day.
Blood samples were collected by cardiac puncture, 24 hours after the last treatment, as part of the necropsy protocol. Parameters examined include hematocrit (HCT), hemoglobin (Hgb), total erythrocyte count (RBC), total white cell count (WBC), differential count, and platelet estimate; calculated mean corpuscular volume (MCV), mean corpuscular hemoglobin (MCH), and mean corpuscular hemoglobin concentration (MCHC).
Also, at 16-18 hours after the last treatment, animals were placed in metabolic cages and urine was collected (just prior to necropsy). The urine samples were tested for presence of myoglobin.
Clinical Chemistry. Blood samples were collected by cardiac puncture, 24 hours after the last treatment, as part of the necropsy protocol. […]

[2] = test system: Syrian Golden hamsters (F1B strain); assay: Lipid profile in Syrian Golden hamsters on hypercholesterolemic diet, combo drugs vs Crestor; format: in vivo; conditions: for effective doses found in this study: in combination, mg/70 kg man
Procedure: Crestor is a new synthetic statin and considered “superstatin” because of its effectiveness at low doses. In clinical studies, Crestor is now found to be the new gold standard among the statins: a 5 mg Crestor dose is equivalent to 20 mg Lipitor, 40 mg Zocor, 80 mg Mevacor or Pravachol. Thus, the drug combination of Compound I and Compound II was compared with Crestor. The animal model was Syrian Golden hamsters (F1B strain, BioBreeders, Fitchburg Mass.). The animals approximately 8-10 weeks of age were fed a non-purified chow-based hypercholesterolemic diet (HCD) containing 10% coconut oil and 0.1% cholesterol by weight for 2 weeks prior to initiation of the experimental treatments, and remain on this diet for the remainder of the study. Compounds I and II were administered by oral gavage (0.2 mL), once a day for 14 days. At day 14, blood samples were obtained after an overnight fast.

[3] = test system: Golden Syrian hamster; assay: Evaluation of antilipidemic property in hamster animal model (2-week daily oral gavage); format: in vivo; conditions: for LDL-C reduced by: 8-160 mg range; for raising HDL-C (in words): monotherapy; for reducing LDL-C by: repeat experiment, 5-20 mg dose range
From the text: Evaluation of antilipidemic property in animal. Golden Syrian hamster, 8-wk old (85-100 g) (Bio®F1B, Bio Breeders, Inc., Watertown, Mass.) was the animal model chosen for this study because of its similarities with humans in lipoprotein metabolism and atherosclerosis Moreover, the hamster has plasma cholesteryl ester transfer protein (CETP) similar to humans. Dietary fat saturation affects apolipoprotein gene expression and high-density lipoprotein size distribution in golden Syrian hamsters. The animals housed four per cage were fed […] Supreme Fortified Hamster diet ([…] Products, Inc. Chilton, Wis.), with one part ratio of Heath High Energy suet (Heath Mfg., Cooperville, Mich.); water ad libitum. The animals were fed this diet for 1 week, and then given the drug treatment for a 2-week duration. Drugs were administered by daily oral gavage using 4:6 PEG/Cremaphore suspension vehicle for the water-insoluble drugs (e.g., atorvastatin, lovastatin, simvastatin, and the fibrates); the water-soluble drugs (dihydroxy-acid salts, pravastatin) were dissolved in water. Equivalent doses, based on a 70 kg person, were administered in the hamster. […] Thus, the calculated final dose for a 100-gm hamster is 0.143 mg as well ([…] X a factor of “10”), formulated in a 0.25 ml solution for oral gavage administration. […] Body weights were recorded prior to drug administration and every other day during the test duration. At termination, blood was collected from anesthetized hamsters and the serum is separated by centrifugation. Total serum cholesterol was assayed using the Hitachi Diagnostics enzymatic kit for the determination of total cholesterol, LDL cholesterol, HDL cholesterol, and triglyceride (Analysis performed by: Lipid Analysis, Inc., Springfield, Ill.).

[4] = background description; cited from earlier work
[5] = Water solubility; format: physicochemical
[6] = Equivalent Dose 8 mg (per 70 kg man), oral gavage 2 weeks, serum
[7] = Equivalent Dose 160 mg (per 70 kg man), oral gavage 2 weeks, serum
[8] = repeat comparison, Equivalent Dose 5.0 mg
[9] = repeat comparison, Equivalent Dose 10.0 mg
[10] = repeat comparison, Equivalent Dose 20.0 mg
[11] = compared with the Compound I and II combination

| SMILES | % Decrease On: HDL-C ([3]; Equivalent Dose 8 mg) | % Decrease On: LDL-C ([3]; Equivalent Dose 8 mg) | % Decrease On: Triglyceride ([3]; Equivalent Dose 8 mg) | % Decrease On: Total Cholesterol [3, 6] | % Decrease On: HDL-C ([3]; Equivalent Dose 160 mg) | % Decrease On: LDL-C ([3]; Equivalent Dose 160 mg) | % Decrease On: Triglyceride ([3]; Equivalent Dose 160 mg) | % Decrease On: Total Cholesterol [3, 7] | raising HDL-C (in words) [3] | other results |
| --- | --- | --- | --- | --- | --- | --- | --- | --- | --- | --- |
| CC(C)(Oc1ccc(CCNC(=O)c2ccc(Cl)cc2)cc1)C(=O)[O-].[Na+] [Compound III] | – | – | – | – | – | – | – | – | – | maximum tolerated dose (MTD) [1]: 10,000 mg; effective doses found in this study [2]: 30 to 40 mg |
| CC[C@H](C)C(=O)O[C@H]1C[C@@H](C)C=C2C=C[C@H](C)[C@H](CC[C@@H](O)C[C@@H](O)CC(=O)[O-])[C@H]21.[Na+] [Compound I] | 25.2% | 41.4% | 28.6% | 30.3% | 32.2% | 29.2% | 33.7% | 40.7% | not effective in raising HDL-C | LDL-C reduced by [3]: 41.4-59.2%; effective at a dose as low as ([3]; equivalent dose, antilipidemic activity): 5 mg; % Decrease On: HDL-C [3, 8]: 5.6%; % Decrease On: LDL-C [3, 8]: 14.7%; % Decrease On: Total Cholesterol [3, 8]: 14.8%; % Decrease On: Triglyceride [3, 8]: 4.5%; % Decrease On: HDL-C [3, 9]: 12.4%; % Decrease On: LDL-C [3, 9]: 23.7%; % Decrease On: Total Cholesterol [3, 9]: 12.6%; % Decrease On: Triglyceride [3, 9]: 6.8%; % Decrease On: HDL-C [3, 10]: 20.7%; % Decrease On: LDL-C [3, 10]: 22.4%; % Decrease On: Total Cholesterol [3, 10]: 20.9%; % Decrease On: Triglyceride [3, 10]: 23.6%; reducing LDL-C by [3]: 22.4-23.7%; effective doses found in this study [2]: 1 to 3 mg |
| CC(C)c1nc(N(C)S(C)(=O)=O)nc(-c2ccc(F)cc2)c1/C=C/[C@@H](O)C[C@@H](O)CC(=O)O [Crestor] | – | – | – | – | – | – | – | – | – | HDL level (in words) [2, 11]: did not boost HDL; controlling cholesterol and LDL (in words) [2, 11]: less effective in controlling cholesterol and LDL |
| CC(C)c1c(C(=O)Nc2ccccc2)c(-c2ccccc2)c(-c2ccc(F)cc2)n1CC[C@@H](O)C[C@@H](O)CC(=O)O [Lipitor, Atorvastatin] | 33.3% | 28.5% | 35.8% | 28.6% | 30.7% | 54.4% | 53.0% | 43.0% | not effective in raising HDL-C; also recorded: did not show any increase in HDL-C | LDL-C reduced by [3]: 28.5-54.4%; % Decrease On: HDL-C [3, 9]: 20.7%; % Decrease On: LDL-C [3, 9]: 17.9%; % Decrease On: Total Cholesterol [3, 9]: 18.2%; % Decrease On: Triglyceride [3, 9]: 5.0%; % Decrease On: HDL-C [3, 10]: 15.9%; % Decrease On: LDL-C [3, 10]: 8.9%; % Decrease On: Total Cholesterol [3, 10]: 12.3%; % Decrease On: Triglyceride [3, 10]: 4.8%; reducing LDL-C by [3]: 8.9-17.9% |
| CC[C@H](C)C(=O)O[C@H]1C[C@@H](C)C=C2C=C[C@H](C)[C@H](CC[C@@H]3C[C@@H](O)CC(=O)O3)[C@H]21 [Mevacor, Lovastatin] | 20.4% | 22.4% | 21.8% | 19.4% | 26.7% | 54.4% | 34.4% | 36.6% | did not show any increase in HDL-C | solubility in water [4]: insoluble in water; solubility in water [5]: not water-soluble |
| CC[C@H](C)C(=O)O[C@H]1C[C@H](O)C=C2C=C[C@H](C)[C@H](CC[C@@H](O)C[C@@H](O)CC(=O)O)[C@H]21 [Pravachol, Pravastatin] | 20.4% | 29.9% | 18.8% | 22.4% | 17.3% | 33.3% | 25.9% | 23.0% | did not show any increase in HDL-C | – |
| CCC(C)(C)C(=O)O[C@H]1C[C@@H](C)C=C2C=C[C@H](C)[C@H](CC[C@@H]3C[C@@H](O)CC(=O)O3)[C@H]21 [Zocor, Simvastatin] | 12.6% | 5.4% | 23.4% | 9.5% | 30.7% | 54.4% | 43.0% | 40.7% | – | – |
| O=C(O)c1cccnc1 [niacin, 3-pyridine carboxylic acid] | – | – | – | – | – | – | – | – | – | solubility in water [5]: not soluble in water |
